Columns and labels:
[1] = Brain infarct size after MCAO; type: in vivo, mice; settings: post-ischemic mice, single dose of α-GalCer (FIG. 45A)
Experimental: Male mice of 8-12 weeks old were anesthetized by intraperitoneal injection of a mixture of 10 mg/kg xylazine hydrochloride (MTC Pharmaceuticals, Cambridge, ON) and 200 mg/kg ketamine hydrochloride (Rogar/STB, London, ON). Body temperature was maintained at 37° C. using a heating pad and temperature regulator with rectal probe. Mice were randomly divided into 2 groups: (i) sham-operated, and (ii) MCAO-operated. All surgical instruments were sterilized before the surgery. Before any incision, the area was swabbed with ethanol. To induce MCAO, a 10-mm incision was made on the right-hand side of the neck. Then, the common carotid artery, external carotid artery, and internal carotid artery were dissected free. The external carotid artery was further dissected distally, then coagulated and cut to serve as a stump. After applying temporary clamps at the common carotid artery and internal carotid artery, a monofilament with a silicon coating diameter of 0.21-0.23 mm (Doccol Corporation, Redlands, Calif., USA) was inserted into the stump of the external carotid artery. The monofilament then advanced a defined distance (12 mm) so that the distal end of the monofilament came to rest across the origin of the MCA. The stump of external carotid artery was tied off. The wound on the neck of the mouse was sutured and the mouse was then transferred onto a heat pad to maintain its body temperature at 37° C. After 30 mins of occlusion, the monofilament was withdrawn to allow reperfusion to occur. The animal then recovered from the anaesthesia. Rehydration of the mice was performed every 4 h with a subcutaneous injection of electrolytes and glucose. Food pellets softened with water were placed in the cage after surgery as the mice recovered, and access to water was provided. Sham-operated animals were subjected to the initial anaesthetic and neck incision only. The animals were then allowed to recover from anaesthetic. All animals were put onto a 37° C. heat pad, post-surgery, to recover from anaesthesia until euthanized.

hepatic iNKT cells = assay: Spinning disk confocal intravital microscopy of the liver: crawling behaviour of GFP+ (iNKT) cells; type: in vivo, mice; settings: Cxcr6gfp/+ mice without MCAO (FIGS. 31A, 31B)
Experimental: Murine liver intravital microscopy was performed as taught by Wong et al. (1997, A minimal role for selectins in the recruitment of leukocytes into the inflamed liver microvasculature. J. Clin. Invest. 99: 2782). Briefly, the tail vein of the anesthetized mice was cannulated to administer fluorescently labeled antibodies and/or additional anesthetic as required. Body temperature was maintained at 37° C. using an infrared heat lamp. Mice were placed in a right lateral position on an adjustable microscope stage. A lateral abdominal incision along the costal margin to the midaxillary line was made to exteriorize the liver, and all exposed tissues were moistened with saline-soaked gauze to prevent dehydration.
Cells were tracked using ImageJ software version 1.45 (NIH at http://rsb.info.nih.gov/ij/). Time-lapse videos exported from Volocity were imported as .mov file, and then converted to 8-bit grayscale. Fluorescent cells were adjusted using threshold control, and noise particles less than 2.0 pixels were removed by filter. Movement of cells was measured using manual tracking, and was calculated for each track using ImageJ output spreadsheets. The cell velocity was expressed in distance (μm) per time (min). 30-40 tracks from 10 mins videos of each animal in each experimental group were analyzed.
Excised livers were prepared for in vivo microscopic observation. Briefly, the liver was placed on the pedestal of an inverted microscope and the liver surface was then covered with a small piece of saline-soaked KimWipe to hold the organ in position. The liver microvasculature was visualized using a spinning-disk confocal microscopy and images were acquired with an Olympus IX81 inverted microscope using a ×10/0.40 UplanFL N objective. The microscope was equipped with a confocal light path (WaveFx, Quorum, Guelph, ON, CA) based on a modified Yokogawa CSU-10 head (Yokogawa Electric Corporation, Tokyo, Japan). Cxcr6^gfp/+ mice were used to visualize hepatic iNKT cells. Laser excitation wavelengths (Cobolt, Stockholm, Sweden) were used in rapid succession and visualized with the appropriate long-pass filters (Semrock, Rochester, N.Y.). Typical exposure time for each excitation wavelength was 300 milli-seconds. A 512×512 pixel back-thinned electron-multiplying charge-coupled device camera (C9100-13, Hamamatsu, Bridgewater, N.J.) was used for fluorescence detection. Volocity Acquisition software (Improvision) was used to drive the confocal microscope. […] Behaviors of iNKT cells in the hepatic microvasculature were assessed.
Wildtype mice underwent the MCAO procedure as previously described in Example 1. […] The crawling behaviours of crawling GFP+ cells in livers from sham-operated control mice and post-ischemic mice were observed and quantified using the methods disclosed in Example 2.

IFNγ = assay: Serum cytokine IFNγ level in peripheral blood (Luminex); type: in vivo; settings: post-ischemic mice 24 h after MCAO; α-GalCer 2 μg/mouse i.v. 2 h after MCAO (FIG. 43A)
Experimental: Levels of the cytokine IFNγ present in peripheral blood were determined by collecting blood samples by cardiac puncture, which were then allowed to clot at room temperature for at least 30 mins. The samples were then centrifuged at 400×g for 10 mins for the retrieval of serum. The serum samples were analyzed for the cytokine IFNγ by using a multiplex mouse cytokine/chemokine kit, and a Luminex 200 apparatus according to manufacturer's instructions. The data were analyzed with the StarStation V.2.3 software from Applied Cytometry Systems (UK).

[2] = Lung injury assessment (MPO activity, lung edema); type: in vivo; settings: post-ischemic mice 24 h after MCAO
Experimental: The lungs of anaesthetized mice were removed after specified period of reperfusion. For determination of lung myeloperoxidase (MPO) activity (an indicator of lung inflammation), samples of lungs were removed, weighed, immediately frozen in liquid nitrogen and stored at −80° C. until the MPO activity assay was performed. Myeloperoxidase activity was measured using an assay previously described (Krawisz et al., 1984) and modified to be used in a 96-well microtitre plate. Values are expressed as units of MPO activity per milligram of lung tissue (U/mg tissue). For determination of lung fluid content, the left lobes were dissected gently dried using a blotting paper, and weighed. The tissues were dried at 55° C. for 72 h and reweighed. The percentage of lung weight attributed to fluid was calculated as an indicator of lung edema formation.
The lung tissues were removed at 24 h post-MCAO and assessed for: (i) myeloperoxidase activity as a measure of neutrophil infiltration, and (ii) for lung edema.

[3] = Alanine transaminase (ALT) activity assay in peripheral blood; type: in vivo; settings: post-ischemic mice after the single dose of α-GalCer (FIG. 45B)
Experimental: Separate groups of control sham-operated mice received a single-dose administration of the α-GalCer compositions following the procedures, both as outlined in Example 7 (one composition/one group of four mice). Also, separate groups of post-ischemic mice received a single-dose administration of the α-GalCer compositions about 2 h after the MCAO events, following the procedures as outlined in Example 7 (one composition/one group of four mice). All animals were euthenized 24 h after MCAO events, and their peripheral blood was harvested. The levels of alanine transaminase (ALT) in the samples were determined with an ALT activity assay following the manufacturer's instructions to determine the rates of oxidation of NADH to NAD^+.

tumors = settings: cited from earlier work

## CCCCCCCCCCCCCCCCCCCCCCCCCCC(=O)N[C@@H](COC1OC(CO)C(O)C(O)C1O)[C@H](O)[C@H](O)CCCCCCCCCCCCCC (stereo partly drawn) [α-GalCer, α-galactosylceramide]
[1]
  infarct sizes: no notable differences
Hepatic iNKT cells
  crawling behaviour of liver iNKT cells after administration of the activator: cessation of iNKTcells
IFNγ
  systemic levels of endogenous IFN-γ: significantly increased
[2]; 2 μg/mouse i.v. 2 h after MCAO (FIG. 43B)
  stroke-induced neutrophil pulmonary influx (MPO activity in lung): reduced
[2]; 2 μg/mouse i.v. 2 h after MCAO (FIG. 43C)
  lung edema: reduced
[3]
  liver enzyme (ALT) levels within the blood: no significant difference
tumors; liver metastatic models
  growth of tumors: suppressed
  survival term of the tumor-bearing mice: prolonged
tumors; murine in vivo experiments incl. subcutaneous implanted model and liver and lung metastatic models
  anti-tumor activity: potent anti-tumor activity

Source: patent US20140329766A1, “Prophylactic Compositions for Management of Microbial Infections in Patients with Brain Injury” (UTI LIMITED PARTNERSHIP, priority 2011, published 2014)
